The text below walks through data of BindingDB's records for doi:10.1016/S0960-894X(01)80901-X (1993).

In the assay the target is Neuromedin-K/NK2 receptor (tachykinin receptor 2), Rattus norvegicus. The experiment in a line: Tested in vitro to inhibit the binding of [125I]NKA to its receptor in rat duodenum membrane.

Molecules are shown by their SMILES.

`CC(=O)NC1(c2ccccc2)CCN(CC[C@H](CN(C)C(=O)c2ccccc2)c2ccc(Cl)c(Cl)c2)CC1` [N-[(R)-4-(4-Acetylamino-4-phenyl-piperidin-1-yl)-2-(3,4-dichloro-phenyl)-butyl]-N-methyl-benzamide] returned a Ki of 0.51 nM.
